Data as given in patent US5032514A, “Metabolic pathway engineering to increase production of ascorbic acid intermediates” (Genentech, Inc., priority 1988, dated 1991).

Columns and labels:
[1] = test system: 2-ketoaldonate reductase [2KR(B)]; test: induction of 2-keto reductase activity by carbohydrates in LB media; format: cell-based, E. herbicola 21998tkrAΔ3; settings: compound as inducer in LB media
Description: The fact that idonate was still produced in the tkrA^- mutant led to the discovery of a second 2-ketoaldonate reductase [2KR(B)], encoded by an inducible tkrB gene. This protein can be purified from the tkrAΔ3 strain and the gene has been cloned (see below). Evidence that 2KR(A) and 2KR(B) are in fact different enzymes is based on observed differences in protein sequence, molecular weight on SDS gels, subunit composition, migration on native gels, kinetic parameters, and gene sequence. 2KR(B) activity is inducible in LB media by a variety of carbohydrates which are listed on Table 1. […] 2-keto reductase activity is found widely elsewhere in nature. We have also identified 2-keto aldonate reductase activity in both E. coli MM294 and Corynebacterium sp. ATCC 31090, neither of which is known to be ketogenic nor produce 2-KLG as a natural product.

[2] = test system: 5-KDG reductase; test: induction of 5-keto reductase activity by carbohydrates in LB media; format: cell-based, E. herbicola 21998tkrAΔ3; settings: compound as inducer in LB media
[3] = test system: E. herbicola; test: growth on sole carbon source in minimal media; format: cell-based
Procedure: Although a large number of potential metabolic routes from glucose exist, IA is likely produced from either 2-KLG or 5-keto-D-gluconate (5-KDG) catalyzed by a stereospecific pyridine nucleotide-linked reductase. Evidence for both the 5-KDG route in Fusarium species (Takagi, Agric. Biol. Chem. 26:719 [1962]) and the 2-KLG route in a variety of microorganisms has been observed (Makeover et al., supra). Shake flask incubations of whole cells of E. herbicola at 11 OD550 containing 12 g/1 of either 2-KLG or 5-KDG were carried out. Approximately 4 g/1 of IA was produced in flasks containing 2-KLG in 40 hours. The total IA and 2-KLG concentration remained constant throughout the bioconversion. […] Furthermore, E. herbicola was grown using either 5-KDG, G, GA, 2-KDG, or 2,5-DKG as the sole carbon source in minimal media. […] Thus the IA produced in E. herbicola into which an expression vector encoding 2,5-DKG reductase has been transferred is derived from 2-KLG catabolism.

[4] = test system: idonate dehydrogenase; test: membrane bound idonate dehydrogenase assay (crude membrane fraction)
[5] = target: gluconate dehydrogenase; test: membrane bound gluconate dehydrogenase assay (crude membrane fraction); settings: read-out: Ki, competitive inhibition of gluconate dehydrogenase
[6] = test system: tac promoters; test: modulation of expression level by sequential increases in IPTG; format: cell-based, Erwinia herbicola; settings: for 2-KLG + IA/DKG: fractional weight basis relative to 2,5-DKG
Procedure: Additional experiments were carried out modulating the expression level by sequential increases in IPTG to induce the tac promoters.
In the table below, IPTG is the concentration of isopropylthio-β-galactoside added to the culture medium. Enzyme activity is the sum of the activities of 2,5-DKG reductase and 2-keto aldonate reductase per mg of protein (measured using the Bradford assay, supra). 2-KLG is measured on gram per gram dry cell weight per hour. Finally, the 2-KLG and idonate is measured on a fractional weight basis relative to 2,5-DKG.

Row | Structure (SMILES) | 2 KR Spec. Act. [1] [µmol/min/mg] | 5 KR Spec. Act. [2] [µmol/min/mg] | also measured
1 | O=C(CO)[C@@H](O)[C@H](O)[C@H](O)CO [D-fructose] | 0.028 | 0.032 | –
2 | O=C(O)C(=O)[C@@H](O)[C@H](O)C(=O)CO [2,5-DKG, 2,5-diketo-D-gluconic acid] | 0.122 | 0.103 | –
3 | O=C(O)[C@H](O)[C@@H](O)[C@H](O)[C@H](O)CO [GA, D-gluconate] | 0.020 | 0.144 | –
4 | O=C(O)[C@H](O)[C@@H](O)[C@H](O)[C@@H](O)CO [IA, L-idonic acid] | – | – | growth using compound as the sole carbon source [3]: did not grow; Km ([4]; read-out: apparent Km, idonate dehydrogenase activity, pH 6.0, 25° C.): 20 mM
5 | O=C(O)C(=O)[C@@H](O)[C@H](O)[C@H](O)CO [2-KDG, 2-keto-D-gluconate] | 0.045 | 0.143 | inhibition of idonate dehydrogenase ([4]; crude membrane fraction): but not idonate dehydrogenase; Ki [5]: > 10 mM
6 | O=C(CO)[C@@H](O)[C@H](O)[C@@H](O)C(=O)O [5-KDG, 5-keto-D-gluconate] | 0.119 | 0.105 | –
7 | OCC(O)CO [D-glycerol] | 0.024 | 0.035 | –
8 | CC(C)S[C@@H]1O[C@H](CO)[C@H](O)[C@H](O)[C@H]1O [IPTG, isopropylthio-β-galactoside] | – | – | 2-KLG Prod. Rate ([6]; [IPTG] 0.001 mM): 0.000 g/g-DCW-Hr; Enzyme Activity (sum of 2,5-DKG reductase and 2-keto aldonate reductase) ([6]; [IPTG] 0.001 mM): 0.029 umole/mg-P-min; 2-KLG + IA/DKG ([6]; [IPTG] 0.001 mM): 0.000; 2-KLG Prod. Rate ([6]; [IPTG] 0.005 mM): 0.004 g/g-DCW-Hr; Enzyme Activity (sum of 2,5-DKG reductase and 2-keto aldonate reductase) ([6]; [IPTG] 0.005 mM): 0.051 umole/mg-P-min; 2-KLG + IA/DKG ([6]; [IPTG] 0.005 mM): 0.025; 2-KLG Prod. Rate ([6]; [IPTG] 0.050 mM): 0.062 g/g-DCW-Hr; Enzyme Activity (sum of 2,5-DKG reductase and 2-keto aldonate reductase) ([6]; [IPTG] 0.050 mM): 0.100 umole/mg-P-min; 2-KLG + IA/DKG ([6]; [IPTG] 0.050 mM): 0.350; 2-KLG Prod. Rate ([6]; [IPTG] 0.500 mM): 0.126 g/g-DCW-Hr; Enzyme Activity (sum of 2,5-DKG reductase and 2-keto aldonate reductase) ([6]; [IPTG] 0.500 mM): 0.140 umole/mg-P-min; 2-KLG + IA/DKG ([6]; [IPTG] 0.500 mM): 0.530
9 | OC[C@@H](O)[C@@H](O)[C@H](O)[C@H](O)CO [D-mannitol] | 0.027 | 0.032 | –
10 | O=C[C@H](O)[C@@H](O)[C@H](O)[C@H](O)CO [D-glucose] | 0.167 | 0.27 | –
11 | O=C(O)C(=O)[C@@H](O)[C@H](O)[C@@H](O)CO [2-KLG, 2-keto-L-gulonic acid] | 0.014 | 0.061 | growth using compound as the sole carbon source [3]: did not grow; Ki ([4]; read-out: Ki, competitive inhibition of idonate dehydrogenase, crude membrane fraction): 13 mM
